# Source: patent US8575218B2, “Thiol-containing compounds for the removal of elements from tissues and formulations therefor” (priority 2009, dated 2013)
# Columns and labels:
# goldfish = assay: Exposure of goldfish to mercuric acetate with and without chelators; type: in vivo
# Method: Individual goldfish were placed in 200 ml water with 10 mM sodium chloride in 250 ml Erlenmeyer flasks (pH 7.00). Air was pumped into the flasks to maintain a healthy supply of oxygen. The 24 hour day was divided in to a 12 hour light/dark photoperiod. The goldfish were allowed to acclimatize for a week before the experiment was conducted, with daily water changes. Goldfish were fed standard fish food for 15 minutes each day before the water was changed.
# The chelate ligands were dissolved in dimethyl sulfoxide (DMSO, 0.5 ml) before addition to the flasks. The experimental treatments evaluated are as listed in Table 1 below, and included mercuric acetate, B9, EEAB9, GB9, GEEAB9, and DMSO in the amounts shown in Table 1. B9 and EEAB9 were dissolved in DMSO (0.5 ml) before addition to the water. No precipitate was formed during the dissolution.
# [1] = Solubility of isolated product in solvents; type: physicochemical
smiles,measurement,setting,value
CC(=O)[O-].CC(=O)[O-].[Hg+2] [Mercuric acetate],Goldfish state (Alive/Dead) at 30 min,goldfish; mercuric acetate 0.5 mM + DMSO 0.5 ml,Dead
same,Goldfish state (Alive/Dead) at 30 min,goldfish; mercuric acetate 0.5 mM alone,Dead
same,Time to death of goldfish,goldfish; mercuric acetate without chelator,≤ 30 min
NC(CCC(=O)NC(CSSCCNC(=O)c1cccc(C(=O)NCCSSCC(NC(=O)CCC(N)C(=O)O)C(=O)NCC(=O)O)c1)C(=O)NCC(=O)O)C(=O)O (stereo not shown) [GB9],Solubility in solvents,[1],readily dissolved in water
